# A melting point compilation (Tetko et al.; mined from patent text by program, amines drawn as free bases though some values may be those of a salt)
row,Compound,melting point
1,COc1ccc(NS(=O)(=O)c2cc(C)c3cc(C(C)C)ccc(C)c2-3)c(OC)c1,114 to 116 °C
2,O=C(O)c1cn(-c2ccc(F)c(O)c2)c2c(Cl)c(F)c(F)cc2c1=O,> 280 °C
3,Cc1c(C(=O)C(N)=O)c2c(OCC(=O)O)cc3c(c2n1Cc1ccccc1)CCCC3,> 300 °C
4,CCC(=O)c1cccc(Oc2nc(OC)cc(OC)n2)c1C(=O)OC,120 to 122 °C
5,CCOC(=O)C1=C(C)NC(=S)N(C(=O)OCC)C1c1cccc(OC)c1 (configuration not stated),107 to 109 °C
6,CCc1[nH]c2ccc(OC)cc2c1/C=C/C(=O)c1ccncc1,214 to 215 °C
7,Cc1cccc(NC(=O)NC2N=C(c3ccccc3F)c3ccccc3N(Cc3nc4ccccc4[nH]3)C2=O)c1 (racemic),165 to 167 °C
8,CC(=O)c1cc(S)c(Cl)cc1CC(=O)OCF,125 to 126 °C
9,COc1ccc(NC(C)=O)c(Sc2ccc(C#N)cc2[N+](=O)[O-])c1,195 to 199 °C
10,O=C(O)c1csnc1-c1cc(S)cc(Cl)c1,150 to 160 °C
11,OC(c1cccnn1)c1ccc(Cl)cc1Cl (configuration not stated),130 to 132 °C
12,COc1cc(N)cc(N)c1,79 to 80 °C
13,O=Cc1ccc(=O)[nH]c1,222 to 224 °C
14,Cn1c(=O)n(Cc2ccc3c(c2)OCO3)c(=O)c2cc(C(=O)NCc3ccc4c(c3)OCO4)ccc21,198 °C
15,O=C(O)CN1C(=O)C(=Cc2cccnc2)SC1=S,261 to 264 °C
16,CCc1cc(C)c(Br)c(CC)c1-c1c(O)c(C)nn(C)c1=O,235 to 236 °C
17,CC(=O)C[C@H]1CC[C@H](c2ccc(Cl)cc2)CC1,58 to 60 °C
18,Cc1ncnc(Cl)c1C,45 to 47 °C
19,O=Cc1cn(-c2ccc(C(F)(F)F)cn2)nc1C1CCCCC1,103 to 104 °C
20,Cc1ccc(S(=O)(=O)n2ccc(-c3ccc(F)cc3)c2-c2ccc(S(C)(=O)=O)cc2)cc1,228 to 229 °C
21,CC(C)c1c(Sc2cccc(Cl)c2)nc(CO)n1C,105 to 106 °C

row,Compound,melting point
1,CC(=O)N(C)c1cc(N)cc(N(C)C(C)=O)c1,179 to 181 °C
2,CCn1nnn(-c2cc(OCOC)c(Cl)cc2Cl)c1=O,112 to 113 °C
3,Cc1nc(N2C[C@@H](C)N(Cc3ccc(C(F)(F)F)cc3)C2=O)sc1C(N)=O,110 to 112 °C
4,CSc1c(C#N)nn(-c2c(Cl)cc(C(F)(F)F)cc2Br)c1N,178 to 180 °C
5,O=c1[nH]c2cc(Cl)cc(Cl)c2c(=O)n1Cc1ccncc1,354 to 364 °C
6,Nc1cccc(-c2ccc(CCN3CC4C(N)C4C3)cc2)n1 (configuration not stated),187 to 190 °C
7,CN1C(=O)C(c2ccc(Cl)cc2)SC1c1cccnc1 (configuration not stated),77.5 to 79 °C
8,NC(=O)c1nnn(Cc2ccc(S(=O)c3ccc(Cl)cc3)c(Cl)c2)c1N (configuration not stated),237 to 238 °C
9,O=c1oc(=O)c2ccc3c4ccccc4sc4ccc1c2c43,315 to 317 °C
10,COC(=O)c1cccc([N+](=O)[O-])c1C,64.2 to 65.5 °C
11,CCOc1cc(C(CC(C)O)N2C(=O)c3cccc(NC(C)=O)c3C2=O)ccc1OC (configuration not stated),132 to 134 °C
12,Nc1cc2c(cc1CCN1CCN(c3cccc(C(F)(F)F)c3)CC1)OCO2,88 °C
13,COC(=O)[C@H](O)[C@@H](NS(=O)(=O)c1c2ccccc2cc2ccccc12)c1ccccc1,98 to 102 °C
14,CCCCCCCCCCCCCCCCC(C)(C)C(=O)O,50 to 53 °C
15,CSC1NC(=O)N(C)C(=O)N1N (configuration not stated),174 to 175 °C
16,O=C(NC1CCCC1)c1ccc(S(=O)(=O)Cl)cc1,143 °C
17,COc1cccc2c1cc(SCCC(=O)O)n2C,126 to 128 °C
18,CCc1ccc(Nc2c(C(=O)NOC(CO)CO)ccc(F)c2F)c(F)c1,91 to 93 °C
19,CCOC(=O)c1cc2cccc(N(C)S(=O)(=O)c3cccs3)c2n1COC,143 to 145 °C
20,COc1ccc(-c2cncc3cccc([N+](=O)[O-])c23)c(O)c1OC,170 to 174 °C
21,CC(=O)NC[C@H]1CN(c2ccc(N3CCC4(CC3)CC4(C#N)C#N)cc2)C(=O)O1,172 to 174 °C

row,Compound,melting point
1,CC(C)c1nc(CC(=O)O)c(-c2ccco2)o1,108 to 109 °C
2,CCCCCn1nc(-c2ccc(F)cc2)c(-c2ccc(S(C)(=O)=O)cc2)cc1=O,65 to 67 °C
3,CS(=O)(=O)c1ccc(-n2cc(CO)nc2-c2ccc(Cl)cc2)cc1,205 to 208 °C
4,CC(=O)C1=C(O)C(=C(C)Nc2ccc(OC(N)=O)cc2)C(=O)OC1=O,213 to 215 °C
5,O=[N+]([O-])c1ccc(F)c(-c2cncnc2)c1F,78 to 80 °C
6,O=C(O)c1cc(Cl)cs1,138 °C
7,COc1ccc(CC2CNC(=O)N2)cc1OC1CCCC1 (configuration not stated),107 to 111 °C
8,COC(=O)c1ccc(Oc2ccc(O)cc2)cc1,130 to 134 °C
9,Cc1c(C)c2c(c(C)c1O)C(CBr)C(C)(C)O2 (configuration not stated),79 to 80 °C
10,CC(C)(C)c1cc2c(c(C(C)(C)C)c1)OCC(/C=C/C=C/C=C/C(=O)O)=C2,166 to 168 °C
11,CCNc1nc(NCCN2CCCC2)nc(Nc2ccc(OC)cc2)n1,29 to 31 °C
12,CN1CCN(C(=O)c2cc(Oc3ccc4c(c3)CCN4C(=O)Nc3cccc(C(F)(F)F)c3)ncn2)CC1,203 to 204 °C
13,CCN1C(=O)C(C)(C)C(=O)N(C)c2cc(CCCN(CCn3ccc4ccoc4c3=O)Cc3cccnc3C)ccc21,106 to 115 °C
14,C=Cc1cn(C)c2cc(-c3ccccc3Cl)c3c(c12)C(=O)NC3=O,200 to 205 °C
15,C=CCOc1cc(F)nc(N)n1,62 to 66 °C
16,CNc1nc(OC(F)F)cc(OC(F)F)n1,54 to 55 °C
17,O=C1Nc2ccc(Br)cc2C12CCCCC2,196 to 199 °C
18,COc1cc(N)c([N+](=O)[O-])cc1O,171 °C
19,Cc1[nH]c(=O)ccc1C(=O)c1ccc([N+](=O)[O-])cc1,282 to 284 °C

# Results, then the molecule that gave them:
row,melting point,Compound
1,125 to 130 °C,OCC1OC(n2cnc3c(NNC4CCOc5ccccc54)ncnc32)C(O)C1O (configuration not stated)
2,175 °C,COC1c2ccccc2C(=O)N1CCN1CCC(Cc2c[nH]c3ccc(F)cc23)CC1 (racemic)
3,82 to 83 °C,CN(C)CCCCCOc1ccc2oc(-c3ccccc3)cc(=O)c2c1
4,207 to 210 °C,O=C(Nc1ccc(NCCCO)nc1)c1cc2cc(C(F)(F)F)cnc2n1Cc1cccc(F)c1
5,75 to 80 °C,CC(=O)N(Cc1nc(-c2ccccc2)c(-c2ccccc2)o1)c1cccc(OCC(=O)O)c1
6,169 to 170 °C,Cc1nn(-c2ccc(Br)cc2)cc1C(=O)N(CC(=O)O)c1ccc(OCC(C)(C)C)c(C#N)c1
7,172 to 180 °C,COC(=O)c1ccc2c(c1)CN(C(=O)c1ccc(-c3ccccc3)cc1)C2
8,175 to 176 °C,COC(=O)COc1cccc2c1CCC(n1nc(-c3c(-c4ccccc4)nn4ccccc34)ccc1=O)C2=O (configuration not stated)
9,> 250 °C,O=C(CSCc1cc(Br)cc2[nH]c(=O)c(=O)[nH]c12)Nc1ccccc1
10,138 to 143 °C,O=C(N[C@@H](CO)C(=O)N1CC(C(=O)O)C1)OCc1ccccc1
11,210 to 214 °C,CCc1ccc(CC(C)(C)NCC(O)c2cc(OCc3ccccc3)cc3c2OCC(=O)N3)cc1 (configuration not stated)
12,199 to 201 °C,O=c1[nH]nc(CO)c2ccccc12
13,185 °C,O=C(Nc1ccccc1S(=O)(=O)NCC1CCCCC1)N[C@@H](Cc1ccc(NC(=O)c2c(Cl)cccc2Cl)cc1)C(=O)O
14,226 to 228 °C,Cc1cn(-c2cc(NC(=O)c3ccc(C)c(C#Cc4ccc(NC5CC5)nn4)c3)cc(C(F)(F)F)c2)cn1
15,116 to 118 °C,COCCn1nc(-c2ccc(Cl)cc2)c2ccccc2c1=O
16,160 °C,Cc1cccc2c1CC(n1ccnc1C(N)=O)C2=O (configuration not stated)
17,45 °C,O=S(=O)(CC=Cc1ccccc1)CCCOC1CCCCO1 (configuration not stated)
18,120 to 122 °C,CCNC(=S)NC1CCCc2ccccc21 (configuration not stated)
19,134 to 135 °C,"O=C(O)C1(O)CCc2ccccc2C1 (single isomer, unassigned; (-))"
20,163 °C,N#CC1=C(Nc2ccccc2N)CSC1
21,140 °C,O=C1c2ccccc2C(=O)c2c1cccc2N1CCN(CCO)CC1

row,melting point,Compound
1,77 to 81 °C,c1ccc(-n2nnnc2OCC2CO2)cc1 (configuration not stated)
2,250 to 255 °C,O=C1NCn2c3ccccc3c(=O)c3cccc1c32
3,222 to 223 °C,CCCOc1ccccc1-c1nc2nc(NCCCS(C)(=O)=O)ncc2c(=O)[nH]1
4,115 °C,CC(C)(C)C(=O)Nc1cc(OCc2ccccc2)c(OCc2ccccc2)cc1N
5,144 to 148 °C,O=C(NCc1ccccn1)C1=C(C(=O)Nc2cc(OC3CCCC3)c(Cl)cc2F)CCCC1
6,97 to 99 °C,COC(=O)CC(c1ccc(C)cc1)N1C(=O)c2ccccc2C1=O (configuration not stated)
7,194 to 195 °C,COc1cc(C2C(C(=O)O)c3ccccc3C(=O)N2C)cc(OC)c1OC (configuration not stated)
8,168 to 175 °C,CC1(C)Oc2ccc(C#N)cc2C(N(C(N)=O)c2ccc3c(c2)CN(Cc2ccccc2)C3)C1O (configuration not stated)
9,111 to 112 °C,CS(=O)(=O)OCC(C(=O)N1CCC(=C2c3ccc(Cl)cc3CCc3cccnc32)CC1)c1ccccc1 (configuration not stated)
10,94 °C,CN(C(=O)COc1nnc(-c2ccco2)s1)c1ccccc1
11,124 to 126 °C,Cc1noc(NS(=O)(=O)c2ccccc2)c1-c1ccccc1
12,92 to 93 °C,COc1cc(CCCCC2OC(=O)NC2=O)ccc1OCc1ccccc1 (configuration not stated)
13,143 °C,OC(c1ccccc1)c1ccc2[nH]nnc2c1 (configuration not stated)
14,115 to 120 °C,Clc1ccc(Cc2cccc(-c3ncc4c(n3)CCCC4)n2)cn1
15,150 to 151 °C,O=C(O)c1cc2ccc(OCCc3ccccc3)cc2oc1=O
16,195 to 197 °C,COC(=O)C(Cc1ccc(O)cc1)NC(=O)C(Cc1ccccc1)NC(=O)c1ccc(OC)cc1 (configuration not stated)
17,103 to 105 °C,C=CCOc1nc(SC)nc(N2CCc3ccccc3CC2)c1C#N
18,154 to 156 °C,CC12Cc3cnn(-c4ccc(F)cc4)c3C=C1CCC1C2=CCCC1c1ccccn1 (configuration not stated)
19,98 to 99 °C,c1ccc2c(c1)CCc1ccccc1C2=NCC1CC1
20,135 to 136 °C,COC(=O)c1nccnc1Nc1ccc(Cl)cc1
